Experiments:
[1] = test system: nüchterner, stoffwechselgesunder Ratten; assay: Blood glucose determination after single oral application; assay type: in vivo, Sprague-Dawley-Ratten; conditions: maximal lowering vs. control group within 6 hours after single oral application of 0,6 mmol substance/kg body weight; fasted male rats
Excerpt: (§1) In Tabelle I werden Untersuchungen des Einflusses von Vertretern der erfindungsgemäßen Verbindungen auf die Blutglucosekonzentration nüchterner, stoffwechselgesunder Ratten wiedergegeben. Spalte A gibt jeweils die maximale Senkung der Blutglucosekonzentration nüchterner Ratten (in % bezogen auf die Kontrollgruppe) an, die im Laufe von 6 Stunden nach einmaliger oraler Applikation von 0,6 mmöl Substanz/kg Körpergewicht be-, obachtet wird. In der Spalte B werden Daten zur akuten Toxizität (LD50; Maus p.o.) wiedergegeben.
1. Blutglucosebestimmung nach einmaliger oraler Applikation
Zur Verwendung kommen junge männliche Sprague-Dawley-Ratten (Körpergewicht 150-200 g). Die Haltung der Tiere (6 Tiere pro Dosis) erfolgt in Makrolon-Käfigen mit bis zu 4 Tieren pro Käfig (Raumtemperatur 23 °C, rel. Luftfeuchtigkeit 55 %, fester Tag/Nacht-Rythmus (12/12=h) Standarddiät Altromin®). Den Ratten wird 18 Stunden vor der 1. Blutentnahme das Futter entzogen. Wasseraufnahme erfolgt ad libitum. Blutentnahmen erfolgen unmittelbar vor und 2, 4 und 6 Stunden nach Substanzgabe durch Punktion aus dem retroorbitalen Plexus. Nach Enteiweißung mit Perchlorsäure wird die Blutglucosebestimmung mittels der bei Banauch et.al. [J.Clin.Chem.Clin.Biochem. 13, 101(1975)] beschriebener Glucose-Dehydrogenase-Methode mit Hilfe von kommerziellen Reagentien durchgeführt. Zum Vergleich wird jeweils eine mit reinem Lösungsmittel behandelte Kontrollgruppe mituntersucht (10 Tiere pro Kontrollgruppe).

in vivo = conditions: mouse, po, read-out: Akute Toxizität Maus p.o. LD50
Excerpt: as §1
2. Bestimmung der Toxizität .
Die Toxizitätsuntersuchungen werden an weiblichen NMRI-Mäusen (Körpergewicht 22-26 g) durchgeführt. Die Tiere (5 Tiere pro Dosis) erhalten 18 Stunden vor der Behandlung das Futter (Altromin®) auf 50 g/50 Tiere reduziert und Wasser ad libitum. Verschiedene Dosen der Substanzen werden oral mittels Schlundsonde verabreicht (Volumen 10 ml/kg). Die Beobachtungsdauer beträgt 7 Tage.

SMILES	Senkung der Blut-glucosekonzentration (in %) in vivo [1] [%]	LD50 (in vivo) [mg/kg]
CCOC(=O)C1(CCCC(C)CCCc2ccccc2)CO1 (stereo not shown) [compound 6, 2-(4-Methyl-7-phenylheptyl)-oxiran-2-carbonsäureethylester]	35	> 500
CCCCNC(=N)NC(=N)N [compound 1, Buformin, reference compound]	8	
CCOC(=O)C1(CCCC(C)Cc2ccc(Cl)cc2)CO1 (stereo not shown) [compound 5, 2-[5-(4-Chlorphenyl)-4-methylpentyl]-oxiran-2-carbonsäure-ethylester]	70	~500
CCOC(=O)C1(CCCC(C)Cc2ccccc2)CO1 (stereo not shown) [compound 3, 2-(4-Methyl-5-phenylpentyl)-oxiran-2-carbonsäureethylester]	45	> 1000
[H]/N=C(/N)N/C(=N/[H])NCCc1ccccc1 [compound 2, Phenformin, reference compound]	6	
CCOC(=O)C1(CC(CC)CCCc2ccccc2)CO1 (stereo not shown) [compound 4, 2-(2-Ethyl-5-phenylpentyl)-oxiran-2-carbonsäureethylester]	25	
CCOC(=O)C1(CCCCC(C)c2ccccc2)CO1 (stereo not shown) [compound 7, 2-(5-Methyl-5-phenylpentyl)-oxiran-2-carbonsäureethylester]	22	

Reference: patent publication EP0071175A2, “Phenylalkyloxirane-carboxylic acids, process for their preparation, their use and medicines containing them” (Byk Gulden Lomberg Chemische Fabrik GmbH, priority 1981, dated 1983)
